Measurements published in ChEMBL document CHEMBL1201862, “PubChem BioAssay data set” (2004).
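Tested at 5 concentrations; 48 h exposure; 96-well plates; endpoints linearly interpolated, else capped at highest concentration. GI50 marks 50% less growth.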 Calls of active or inactive are those of the source. Rule as the data show it: active = GI50 up to about 1.1 µM and inactive = higher.

Legend:
Test in all cases: DTP human tumour cell line panel, 48 h
LOX IMVI = system: LOX IMVI
SK-MEL-5 = system: SK-MEL-5
SN12C = system: SN12C
K562 = system: K562
786-0 = system: 786-0
SNB-75 = system: SNB-75
OVCAR-8 = system: OVCAR-8
HCT-15 = system: HCT-15
HOP-92 = system: HOP-92
MOLT-4 = system: MOLT-4
A498 = system: A498
TK-10 = system: TK-10
NCI-H460 = system: NCI-H460
OVCAR-5 = system: OVCAR-5
M14 = system: M14
SR = system: SR
EKVX = system: EKVX

Row | SMILES | GI50 (LOX IMVI) | GI50 (SK-MEL-5) | GI50 (SN12C) | GI50 (K562) | GI50 (786-0) | GI50 (SNB-75) | GI50 (OVCAR-8) | GI50 (HCT-15) [µM] | GI50 (HOP-92) | GI50 (MOLT-4) | GI50 (A498) | GI50 (TK-10) | GI50 (NCI-H460) | GI50 (OVCAR-5) | GI50 (M14) | GI50 (SR) | GI50 (EKVX)
1 | O=C1c2c(c3c4ccccc4n(CC4CO4)c3c3[nH]c4ccccc4c23)C(=O)N1Cc1ccccc1 (stereo unspecified) | > 100 µM (inactive) | > 10 µM (inactive) | > 100 µM (inactive) | 95.7 µM (inactive) | > 100 µM (inactive) | > 10 µM (inactive) | 48.2 µM (inactive) | > 100 | > 100 µM (inactive) | 38.6 µM (inactive) | 31.9 µM (inactive) | > 100 µM (inactive) | 89.5 µM (inactive) | > 100 µM (inactive) | > 100 µM (inactive) | > 100 µM (inactive) | 
2 | N#CC(C#N)=CSc1ccccc1 | 12.6 µM (inactive) | 28.5 µM (inactive) | 19.6 µM (inactive) | 80.7 µM (inactive) | 16.7 µM (inactive) | 24.1 µM (inactive) | 17.8 µM (inactive) | 22.1 | 50.2 µM (inactive) | 13.2 µM (inactive) |  | 38 µM (inactive) | 34 µM (inactive) | 26.3 µM (inactive) | 22.9 µM (inactive) | 7.6 µM (inactive) | 48.2 µM (inactive)
3 | Nc1nc2c(ncn2CC(CO)CC(c2ccccc2)P(=O)(O)O)c(=O)[nH]1 (stereo unspecified) | > 100 µM (inactive) | > 100 µM (inactive) | > 100 µM (inactive) | > 100 µM (inactive) | > 100 µM (inactive) |  | > 100 µM (inactive) | > 100 | > 100 µM (inactive) | > 100 µM (inactive) | > 100 µM (inactive) | > 100 µM (inactive) | > 100 µM (inactive) | > 100 µM (inactive) | > 100 µM (inactive) | > 100 µM (inactive) | > 100 µM (inactive)
4 | ClC/C=C/COC1CCCCO1 (stereo unspecified) |  | > 100 µM (inactive) | > 100 µM (inactive) | > 100 µM (inactive) | > 100 µM (inactive) | > 100 µM (inactive) | 57.5 µM (inactive) | > 100 | > 100 µM (inactive) | 29 µM (inactive) | > 100 µM (inactive) | > 100 µM (inactive) | > 100 µM (inactive) | > 100 µM (inactive) | > 100 µM (inactive) | 18.2 µM (inactive) | > 100 µM (inactive)
5 | Clc1ccccc1C1N2CCCCC2[C@@H]2c3[nH]c4ccccc4c3CCN12 (stereo partly specified) |  | > 10 µM (inactive) | 16.7 µM (inactive) | 14.3 µM (inactive) | 21.2 µM (inactive) | 32.4 µM (inactive) | 19.8 µM (inactive) | 16.2 | 41.7 µM (inactive) | 31 µM (inactive) | 13.9 µM (inactive) | 23.8 µM (inactive) | 19.4 µM (inactive) | 20.9 µM (inactive) | 17.3 µM (inactive) |  | 40.1 µM (inactive)
6 | CCOC(=O)c1[nH]c(COC(C)=O)c(CCCOC(C)=O)c1CCCOC(C)=O | > 100 µM (inactive) |  | > 100 µM (inactive) | > 100 µM (inactive) | > 100 µM (inactive) |  | > 100 µM (inactive) | > 100 | > 100 µM (inactive) | > 100 µM (inactive) | > 100 µM (inactive) | > 100 µM (inactive) | > 100 µM (inactive) | > 100 µM (inactive) |  | > 100 µM (inactive) | > 100 µM (inactive)
7 | CN1C(=O)N(c2nc3ccccc3[nH]2)C(C)(C)C1=O | > 100 µM (inactive) | > 100 µM (inactive) | > 100 µM (inactive) | > 100 µM (inactive) | > 100 µM (inactive) | > 100 µM (inactive) | > 100 µM (inactive) | > 100 |  | > 100 µM (inactive) | > 100 µM (inactive) |  |  |  | > 100 µM (inactive) | > 100 µM (inactive) | > 100 µM (inactive)
8 | O=c1c2ccccc2nc(-c2cccc(Cl)c2)n1NCC1(O)OCC(O)C(O)C1O (stereo unspecified) | > 100 µM (inactive) | > 10 µM (inactive) | > 100 µM (inactive) | 45.7 µM (inactive) | > 100 µM (inactive) | > 10 µM (inactive) | > 100 µM (inactive) | > 100 |  | 48.2 µM (inactive) | > 100 µM (inactive) |  | > 100 µM (inactive) | > 100 µM (inactive) | > 100 µM (inactive) | 43.9 µM (inactive) | > 100 µM (inactive)
9 | COc1ccc(/C=C/c2nnc(S)[nH]2)cc1OC | > 100 µM (inactive) | > 100 µM (inactive) | > 100 µM (inactive) | > 100 µM (inactive) | > 100 µM (inactive) | > 100 µM (inactive) | > 100 µM (inactive) | > 100 | > 100 µM (inactive) | > 100 µM (inactive) | > 100 µM (inactive) | > 100 µM (inactive) | > 100 µM (inactive) | > 100 µM (inactive) | > 100 µM (inactive) | > 100 µM (inactive) | 
10 | COC(=O)N/N=C(/CCC(=O)Nc1ccc(C)c(C)c1)CC(=O)C(C)(C)C | > 100 µM (inactive) | > 100 µM (inactive) | > 100 µM (inactive) | > 100 µM (inactive) | > 100 µM (inactive) | > 100 µM (inactive) | > 100 µM (inactive) | > 100 |  | > 100 µM (inactive) |  | > 100 µM (inactive) | > 100 µM (inactive) | > 100 µM (inactive) | > 100 µM (inactive) |  | > 100 µM (inactive)
11 | CCOC(=O)C1=C(C)N(c2ccc(C)cc2)C2=C(C(=O)N(c3ccccc3)C2c2ccccc2)C1c1ccccc1 (stereo unspecified) | > 25 µM (inactive) | 16.5 µM (inactive) | > 25 µM (inactive) | 19.8 µM (inactive) | > 25 µM (inactive) | 1.51 µM (inactive) | > 25 µM (inactive) | > 25 |  | 7.82 µM (inactive) | > 25 µM (inactive) | > 25 µM (inactive) | 13.3 µM (inactive) |  | > 25 µM (inactive) | 17.7 µM (inactive) | > 25 µM (inactive)
12 | O=C1C(Cl)C(c2cc(Br)cc(Br)c2O)N1n1cnc2ccccc2c1=O (stereo unspecified) | 14.1 µM (inactive) | 18.8 µM (inactive) | 27.5 µM (inactive) | 26.2 µM (inactive) | 26.2 µM (inactive) | 25.3 µM (inactive) | 24.7 µM (inactive) | 20.3 |  | 7.46 µM (inactive) |  | 46.5 µM (inactive) | 12.6 µM (inactive) | 19.4 µM (inactive) | 18.3 µM (inactive) | 7.76 µM (inactive) | 25.1 µM (inactive)
13 | N#CC(C(=O)Nc1ccccc1)C1=C(Cl)C(=O)c2ccccc2C1=O (stereo unspecified) | 15.7 µM (inactive) | 16.1 µM (inactive) | 15.7 µM (inactive) | 13.6 µM (inactive) | 14.6 µM (inactive) | > 10 µM (inactive) | 18.9 µM (inactive) | 18.5 | 14.3 µM (inactive) |  | 47.1 µM (inactive) | 21.7 µM (inactive) | 33.9 µM (inactive) | 17.6 µM (inactive) | 16.5 µM (inactive) |  | 17.5 µM (inactive)
